The record followed here is PMC3408453, “A Foldamer-Dendrimer Conjugate Neutralizes Synaptotoxic β-Amyloid Oligomers” (PLoS ONE, 2012).

Molecules are shown by their SMILES.

The target in test [1] is T1, HMW fraction of Aβ oligomers (Homo sapiens, UniProt P05067).
T1 construct: a depsipeptide derivative of Aβ(1–42) was utilized; made in house; host or cells: chemical peptide synthesis (no expression host)
In words: Concentration-dependent dot blot with SEC-separated HMW Aβ oligomer fraction. The test is classed as binding. As to conditions: 10 µg ligand spotted, BAM10 1∶500. As for the experimental part:
ITC measurement for 7 indicated fractional stoichiometry for the low nM binding, which pointed to that the high affinity interaction involves only a fraction of the oligomeric Aβ sample. To localize the strongly binding fraction in the mixture, size exclusion chromatographic (SEC) separation was carried out and the resulting Aβ oligomer fractions were tested with 7 in concentration-dependent dot blot experiments. Two dominant peaks were found in the SEC chromatogram corresponding to the high molecular weight (HMW) and low molecular weight (LMW) components (Figure 7). […] In control experiments, specific and/or preferential binding of Aβ by the membrane itself were ruled out. These findings were in line with the ITC and ELISA results. It could be concluded that 7 preferentially bound to the LMW fraction at low nM concentration and also interacted with the HMW fraction at sub-µM level.
Figure 7 Selective binding to the LMW Aβ oligomers in the nM range. Size exclusion chromatographic separation of the HMW and LMW fractions of the Aβ oligomeric sample (top panel). Concentration-dependent dot blot experiments performed with the HMW (A) and the LMW fractions (B). The ligand loadings were 10 µg aliquots of 7, and the sequence specific antibody BAM10 (1∶500) was utilized. Lanes within the panels are parallel experiments. […]

The next test concerns the target T2, Aβ oligomers (Homo sapiens, UniProt P05067).
T2 construct: a depsipeptide derivative of Aβ(1–42) was utilized; made in house; host or cells: chemical peptide synthesis (no expression host)
In words: Electronic circular dichroism of Aβ oligomer with ligand. As to conditions: 0.25 equivalents ligand with 36 μM Aβ. The text has this:
The data on 7 were in agreement with its largely helical structure, also found via NMR. […] This was in accord with the NMR results obtained for the recognition segment 1. The secondary structure was probed also with ThT binding experiments (Figure 9B). Pure Aβ oligomers bound ThT at a certain level. This was in accord with the staining with antibody OC; both are capable of recognizing the fibrillar (or protofibrillar) oligomers. […] The latter process is similar to affinity precipitation.
(A) Observed ellipticities in ECD for 36 μM Aβ oligomer (thick black), 9 μM 7 (thin black), and 36 μM Aβ +9 μM 7 (thick dashed). The hypothetical sum of the ECD curves of the pure samples (thin dashed). (B) ThT binding experiment carried out on 36 µM oligomeric Aβ (white bars) and on 36 µM oligomeric Aβ +7 1∶1 mixtures. The relative fluorescence values were monitored up to 24 h.
CD spectra were measured on a Jasco J815 dichrograph in a 1.00 cm cell using PBS (pH = 7.4) as solvent. Three spectra were accumulated for each sample. The baseline spectrum recorded with only the solvent and it was subtracted from the raw data.
For orientation: CD spectra are sensitive to the conformation of chiral molecules.

T1 sequence (P05067 672-713 limits assumed): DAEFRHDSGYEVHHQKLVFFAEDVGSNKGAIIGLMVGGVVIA
T2 sequence (P05067 672-713 limits assumed): as above

As for `N=C(N)NCCC[C@@H](CC(=O)N[C@H]1CCCC[C@@H]1C(=O)N[C@H]1CCCC[C@@H]1C(=O)N[C@@H](CC(=O)O)CC(=O)N[C@H]1CCCC[C@@H]1C(=O)NCC(=O)NCC(=O)N[C@@H](CSC1CC(=O)N(CCC(=O)NCCNC(=O)CCN(CCC(=O)NCCNC(=O)CCN2C(=O)CC(SC[C@H](NC(=O)CNC(=O)CNC(=O)[C@H]3CCCC[C@@H]3NC(=O)C[C@H](CC(=O)O)NC(=O)[C@H]3CCCC[C@@H]3NC(=O)[C@H]3CCCC[C@@H]3NC(=O)C[C@H](CCCNC(=N)N)NC(=O)[C@H]3CCCC[C@@H]3N)C(N)=O)C2=O)CCN(CCC(=O)NCCNC(=O)CCN2C(=O)CC(SC[C@H](NC(=O)CNC(=O)CNC(=O)[C@H]3CCCC[C@@H]3NC(=O)C[C@H](CC(=O)O)NC(=O)[C@H]3CCCC[C@@H]3NC(=O)[C@H]3CCCC[C@@H]3NC(=O)C[C@H](CCCNC(=N)N)NC(=O)[C@H]3CCCC[C@@H]3N)C(N)=O)C2=O)CCC(=O)NCCNC(=O)CCN2C(=O)CC(SC[C@H](NC(=O)CNC(=O)CNC(=O)[C@H]3CCCC[C@@H]3NC(=O)C[C@H](CC(=O)O)NC(=O)[C@H]3CCCC[C@@H]3NC(=O)[C@H]3CCCC[C@@H]3NC(=O)C[C@H](CCCNC(=N)N)NC(=O)[C@H]3CCCC[C@@H]3N)C(N)=O)C2=O)C1=O)C(N)=O)NC(=O)[C@H]1CCCC[C@@H]1N` (some centres unmarked) [Compound 7], the “Dot blot binding of HMW Aβ oligomer fraction” value in test [1] is listed as “stained with just below micromolar affinity”. The “ECD: effect on β-sheet content of Aβ” value on Aβ oligomers was “did not lead to an immediate increase in the β-sheet content”.
